# According to ChEMBL document CHEMBL1201862, “PubChem BioAssay data set” (2004):
# The source made the active and inactive calls.
# How the values were obtained:
# [1] = biological target: T1, Cytochrome P450 1A2 (Homo sapiens, UniProt P05177);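 further: PubChem cytochrome P450 panel assay, CYP1A2 panel member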
# T1 sequence (P05177 whole entry): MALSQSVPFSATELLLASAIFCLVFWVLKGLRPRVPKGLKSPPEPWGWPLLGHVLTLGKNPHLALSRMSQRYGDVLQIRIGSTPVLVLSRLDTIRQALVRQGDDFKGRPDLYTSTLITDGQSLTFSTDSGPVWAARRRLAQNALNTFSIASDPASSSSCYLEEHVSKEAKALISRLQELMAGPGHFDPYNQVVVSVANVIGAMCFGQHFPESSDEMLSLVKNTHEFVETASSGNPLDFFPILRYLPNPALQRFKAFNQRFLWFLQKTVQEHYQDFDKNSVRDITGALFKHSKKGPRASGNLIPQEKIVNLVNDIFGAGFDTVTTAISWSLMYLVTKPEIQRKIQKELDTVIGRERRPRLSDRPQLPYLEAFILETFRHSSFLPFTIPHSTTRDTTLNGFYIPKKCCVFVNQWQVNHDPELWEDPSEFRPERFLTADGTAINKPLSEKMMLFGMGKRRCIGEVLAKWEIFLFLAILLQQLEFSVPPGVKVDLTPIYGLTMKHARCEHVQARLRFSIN
# [2] = inhibitors of firefly luciferase expression or activity, dose response, H4 neuroglioma cells, luminescence (AID 1990); assay type: functional, cell-based
# [3] = inhibitors of SNCA 5'UTR-driven reporter translation, confirmation, H4 neuroglioma cells, luminescence (AID 1988); assay type: functional, cell-based
# [4] = Luminescence Cell-Based Dose Response HTS to Identify Inhibitors of 5'UTR Stem-Loop Driven Prion Protein mRNA Translation in H4 Neuroglioblastoma Cells. [Related pubchem assays: 1827 (Project Summary), 1813 (Primary HTS)]; assay type: functional
# [5] = biological target: Cytochrome P450 2C9 (Homo sapiens, UniProt P11712)
# [6] = biological target: FAD-linked sulfhydryl oxidase ALR (Homo sapiens, UniProt P55789); experiment: inhibitors of human ALR sulfhydryl oxidase, dose response, biochemical, H2O2 detection, luminescence, cherry-pick (AID 493248)
# [7] = test system: H9c2; experiment: cells; assay type: functional, cell-based; settings: Rattus norvegicus, H9c2, Myocardium;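 further: confirmatory concentration-response retest of ultra-high-throughput screening hits for modulation of myocardial damage; cell death induced by hydrogen peroxide oxidative stress; compound pretreatment for 60 min then peroxide exposure for 2 h; potency is for protecting the cells against peroxide damage rather than for killing them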
# [8] = HEp-2 cell cytotoxicity, dose response, cytotoxicity control for RSV inhibitor project, HTS (AID 2410); assay type: functional; settings: human respiratory syncytial virus
# [9] = cells; assay type: functional
# [10] = biological target: T2, Corticotropin-releasing factor receptor 2/Corticotropin-releasing factor-binding protein (Homo sapiens, UniProt P24387+Q13324); experiment: activators of CRF receptor 2 with binding protein – uHTS hits, confirmation (AID 602473); assay type: functional; settings: read-out: EC50_Mean
# T2 sequence (Q13324 whole entry): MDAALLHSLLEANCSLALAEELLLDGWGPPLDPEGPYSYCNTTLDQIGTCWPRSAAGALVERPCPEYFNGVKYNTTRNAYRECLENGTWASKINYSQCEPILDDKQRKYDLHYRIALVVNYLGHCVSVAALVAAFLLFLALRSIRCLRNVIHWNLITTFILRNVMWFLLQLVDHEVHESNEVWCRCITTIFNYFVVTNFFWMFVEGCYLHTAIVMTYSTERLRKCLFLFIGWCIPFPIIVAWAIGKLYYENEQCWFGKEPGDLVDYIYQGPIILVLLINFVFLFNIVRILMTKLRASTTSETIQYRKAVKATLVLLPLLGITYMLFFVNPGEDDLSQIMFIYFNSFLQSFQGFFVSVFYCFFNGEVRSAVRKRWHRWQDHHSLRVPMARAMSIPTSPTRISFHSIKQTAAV
# T2 sequence (P24387 whole entry): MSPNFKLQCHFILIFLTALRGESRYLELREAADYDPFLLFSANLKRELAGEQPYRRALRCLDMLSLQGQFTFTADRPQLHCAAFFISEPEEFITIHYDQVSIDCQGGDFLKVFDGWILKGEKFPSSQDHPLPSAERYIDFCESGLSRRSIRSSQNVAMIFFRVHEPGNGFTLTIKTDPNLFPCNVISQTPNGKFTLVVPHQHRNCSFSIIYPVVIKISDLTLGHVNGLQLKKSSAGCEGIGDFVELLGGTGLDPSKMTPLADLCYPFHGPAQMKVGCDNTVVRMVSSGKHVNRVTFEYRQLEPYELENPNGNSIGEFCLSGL
# [11] = inhibitors of intracellular T. cruzi replication, confirmation, NIH3T3 host cells, beta-gal luminescence (AID 2044); assay type: functional, cell-based;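 further: intracellular parasites grown in NIH/3T3 mouse fibroblasts as host cells; luminescent beta-galactosidase reporter signal from transgenic T. cruzi replicating inside host cells; inhibitors lower the luminescence signal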
# [12] = cytotoxicity toward NIH3T3 fibroblasts, dose response, counter-screen, cell-based, ATP luminescence, mouse fibroblasts (AID 2010); assay type: functional;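 further: cells exposed to compound for about 90 hours before reading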
# [13] = biological target: Cytochrome P450 2D6 (Homo sapiens, UniProt P10635);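 further: CYP2D6 member of a cytochrome P450 panel assay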
# [14] = biological target: Cytochrome P450 3A4 (Homo sapiens, UniProt P08684);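 further: CYP3A4 tested as one member of a cytochrome P450 panel screen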
# [15] = biological target: Cytochrome P450 2C19 (Homo sapiens, UniProt P33261); experiment: Cytochrome panel assay with activity outcomes. Panel member name: p450-cyp2c19 Compounds with AC50 equal or less than 10 uM are considered active; assay type: functional; settings: read-out: AC50
# Sequence of Cytochrome P450 2C19 (P33261 whole entry): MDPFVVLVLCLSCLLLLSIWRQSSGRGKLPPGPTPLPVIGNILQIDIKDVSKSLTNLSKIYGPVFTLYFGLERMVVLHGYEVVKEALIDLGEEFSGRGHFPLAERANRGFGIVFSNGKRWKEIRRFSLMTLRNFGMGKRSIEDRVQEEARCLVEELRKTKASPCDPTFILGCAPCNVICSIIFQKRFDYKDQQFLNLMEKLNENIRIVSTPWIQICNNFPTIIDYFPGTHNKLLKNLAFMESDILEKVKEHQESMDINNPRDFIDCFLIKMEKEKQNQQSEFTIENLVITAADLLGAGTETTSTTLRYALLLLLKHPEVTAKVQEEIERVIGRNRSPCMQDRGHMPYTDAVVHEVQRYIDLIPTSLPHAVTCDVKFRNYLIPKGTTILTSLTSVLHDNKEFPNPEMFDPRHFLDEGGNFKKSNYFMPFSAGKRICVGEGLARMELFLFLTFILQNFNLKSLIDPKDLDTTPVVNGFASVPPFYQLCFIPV
# Sequence of Cytochrome P450 2C9 (P11712 whole entry): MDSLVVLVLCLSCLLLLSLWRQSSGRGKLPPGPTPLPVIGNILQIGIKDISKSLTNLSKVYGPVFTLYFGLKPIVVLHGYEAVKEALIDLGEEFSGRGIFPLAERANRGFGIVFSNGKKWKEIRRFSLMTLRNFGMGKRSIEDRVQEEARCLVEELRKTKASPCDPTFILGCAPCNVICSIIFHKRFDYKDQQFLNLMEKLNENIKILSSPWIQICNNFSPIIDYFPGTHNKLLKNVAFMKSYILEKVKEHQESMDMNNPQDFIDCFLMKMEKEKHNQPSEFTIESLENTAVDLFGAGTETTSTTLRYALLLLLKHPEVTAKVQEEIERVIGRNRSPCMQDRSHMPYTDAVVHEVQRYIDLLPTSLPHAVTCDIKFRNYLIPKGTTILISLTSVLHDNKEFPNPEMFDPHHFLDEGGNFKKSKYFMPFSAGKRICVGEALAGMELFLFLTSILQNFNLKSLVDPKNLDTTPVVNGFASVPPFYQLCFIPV
# Sequence of FAD-linked sulfhydryl oxidase ALR (P55789 whole entry): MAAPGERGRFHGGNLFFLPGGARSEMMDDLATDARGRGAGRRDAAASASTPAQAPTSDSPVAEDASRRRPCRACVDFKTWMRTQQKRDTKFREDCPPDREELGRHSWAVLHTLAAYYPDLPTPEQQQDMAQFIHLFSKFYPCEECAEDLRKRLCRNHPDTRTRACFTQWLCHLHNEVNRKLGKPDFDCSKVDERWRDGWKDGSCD
# Sequence of Cytochrome P450 3A4 (P08684 whole entry): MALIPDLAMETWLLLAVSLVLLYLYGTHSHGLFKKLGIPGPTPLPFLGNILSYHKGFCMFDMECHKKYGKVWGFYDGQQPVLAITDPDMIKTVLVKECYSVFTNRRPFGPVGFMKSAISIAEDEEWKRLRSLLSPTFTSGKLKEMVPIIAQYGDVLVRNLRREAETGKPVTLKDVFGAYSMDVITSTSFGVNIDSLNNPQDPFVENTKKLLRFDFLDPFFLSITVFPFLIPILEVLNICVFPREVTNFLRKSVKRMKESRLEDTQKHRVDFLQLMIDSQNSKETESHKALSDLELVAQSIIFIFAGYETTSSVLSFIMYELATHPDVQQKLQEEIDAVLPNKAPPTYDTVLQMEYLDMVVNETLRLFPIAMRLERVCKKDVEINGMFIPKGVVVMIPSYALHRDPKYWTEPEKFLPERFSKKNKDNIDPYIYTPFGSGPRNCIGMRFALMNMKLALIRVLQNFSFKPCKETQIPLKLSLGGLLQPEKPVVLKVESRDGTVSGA
# Sequence of Cytochrome P450 2D6 (P10635 whole entry): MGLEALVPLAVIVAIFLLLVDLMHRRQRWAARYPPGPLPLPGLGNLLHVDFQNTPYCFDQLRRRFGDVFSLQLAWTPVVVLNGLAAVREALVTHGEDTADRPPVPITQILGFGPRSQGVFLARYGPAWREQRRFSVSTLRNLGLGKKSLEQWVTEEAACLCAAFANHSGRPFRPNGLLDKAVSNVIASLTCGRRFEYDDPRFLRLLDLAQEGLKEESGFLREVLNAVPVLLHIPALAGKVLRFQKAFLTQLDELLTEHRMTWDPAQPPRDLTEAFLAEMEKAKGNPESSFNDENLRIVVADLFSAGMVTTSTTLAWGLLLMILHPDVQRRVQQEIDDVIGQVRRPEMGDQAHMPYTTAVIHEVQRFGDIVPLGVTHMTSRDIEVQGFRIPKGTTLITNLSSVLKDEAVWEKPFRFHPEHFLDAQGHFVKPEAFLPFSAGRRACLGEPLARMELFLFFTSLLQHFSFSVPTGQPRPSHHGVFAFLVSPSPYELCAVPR
smiles,measurement,setting,value
CCN(CC)C(=O)c1ccc(O)c(OC)c1,AC50,[1],12.6 µM (inconclusive)
O=S(=O)(c1ccc(Br)cc1)N1CCC(c2nc3ccccc3[nH]2)CC1,EC50,[2],11.9 µM (active)
same,EC50,[3],> 120 µM (not active)
COc1ccc(CCNS(=O)(=O)c2cn(C)cn2)cc1OC,EC50,[2],> 120 µM (not active)
same,EC50,[4],> 120 µM (not active)
same,EC50,[3],> 120 µM (not active)
Cc1nnc(NC(=O)c2cccc(NC(=O)C(C)C)c2)s1,AC50,[1],39.8 µM (inconclusive)
same,AC50,[5],25.1 µM (inconclusive)
O=C(NCCSc1c[nH]c2ccccc12)C1CC1,AC50,[6],8.01 µM (active)
CC(C)(C)OC(=O)CNC(=O)c1[nH]cnc1C(=O)NC(c1ccccc1)c1ccccc1,IC50,[7],> 79 µM (inactive)
CCN(CC)C(=O)CSc1nc(O)c2ccccc2n1,IC50,[7],> 79 µM (inactive)
COc1cc(/C=C/c2n[nH]c(-c3ccccc3O)n2)cc(OC)c1OC,IC50,[7],> 79 µM (inactive)
CN(C(=O)COC(=O)c1c2c(nc3ccccc13)/C(=C/c1cccc([N+](=O)[O-])c1)CCC2)C1CCS(=O)(=O)C1 (centres undefined),EC50,[2],11.6 µM (active)
same,EC50,[4],> 120 µM (not active)
same,EC50,[3],11 µM (active)
CCC1Nc2ncnc(N3CCN(c4ccccc4)CC3)c2N(Cc2ccc(Cl)cc2)C1=O (centres undefined),CC50,[8],16.6 µM (active)
COc1ccc2cc3cc(C(=O)Nc4cc(OC)c(OC)c(OC)c4)oc3nc2c1,IC50,[7],> 79 µM (inactive)
COc1ccc(-c2c(-c3ccsc3)oc(=O)c3cc(OC)c(OC)cc23)cc1,CC50,[8],47.2 µM (active)
O=c1ccc(NS(=O)(=O)c2ccc(Cl)cc2)cn1Cc1ccc(Cl)c(Cl)c1,AC50,[1],28.2 µM (inconclusive)
Cc1ccc(C)c(NC(=O)c2cc([N+](=O)[O-])cc([N+](=O)[O-])c2)c1,IC50,[9],10.1 µM (active)
Cc1cccc(C(=O)O)c1C[C@H]1NCC[C@H]2c3ccccc3N[C@@H]12,AC50,[1],0.0631 µM (inconclusive)
CCn1nnc(NC(=O)COc2ccc(C3CCCCC3)cc2)n1,IC50,[9],18.4 µM (active)
CN(C)Cc1ccccc1Sc1ccc2c(c1)CCCC2,EC50,[2],> 120 µM (not active)
same,EC50,[4],32.4 µM (active)
same,EC50,[3],> 120 µM (not active)
Brc1ccccc1OCCCOc1cccc2cccnc12,CC50,[8],26.3 µM (active)
CCOc1ccc(C2C=C(c3ccc(C)cc3)Nc3nnnn32)cc1 (centres undefined),EC50,[10],> 53 µM (inactive)
Cc1cccc(N2CCN(C(=O)CCCn3c(=S)[nH]c4cc5c(cc4c3=O)OCO5)CC2)c1C,CC50,[8],23.4 µM (active)
same,EC50,[11],0.389 µM (active)
same,EC50,[12],> 30 µM (not active)
same,AC50,[13],10 µM (inconclusive)
CCNc1ncc2nc(-c3ccccc3)c(=O)n(CCc3ccccc3)c2n1,AC50,[1],12.6 µM (inconclusive)
same,AC50,[14],15.8 µM (inconclusive)
same,AC50,[5],1.26 µM (inconclusive)
CC1(c2ccccc2)NC(=O)N(CC(=O)Nc2cccc(/C=C/c3ccccn3)c2)C1=O (centres undefined),IC50,[7],> 79 µM (inactive)
COC(=O)[C@@]1(Cc2ccc(F)cc2)[C@H]2c3cc(C(=O)N(C)C)n(C)c3C[C@H]2CN1C(=O)c1ccccc1,AC50,[15],25.1 µM (inconclusive)
same,AC50,[1],31.6 µM (inconclusive)
CN(C)c1cc(=O)n2c(n1)SCCC2,AC50,[15],28.2 µM (inconclusive)
same,AC50,[1],12.6 µM (inconclusive)
OCC#CCSc1nnc(-c2ccc(Br)cc2)o1,IC50,[9],5.2 µM (active)
Brc1c(-c2ccc3c(c2)OCO3)nc2ncccn12,IC50,[9],4.7 µM (active)
COc1ccc(-n2c(=O)c(CCc3ccccc3)nc3cncnc32)cc1,AC50,[1],25.1 µM (inconclusive)
same,AC50,[5],20 µM (inconclusive)
COc1ccccc1NC(=O)Nc1ncccc1C,AC50,[6],0.903 µM (active)
CCC(C)c1ccc(NC(S)=NCCn2cc(Br)cn2)cc1 (centres undefined),EC50,[2],> 120 µM (not active)
same,EC50,[4],> 120 µM (not active)
same,EC50,[3],> 120 µM (not active)
CCc1c(C)nc(Nc2nc(C)c3ccc(OC)cc3n2)nc1O,IC50,[7],> 79 µM (inactive)
Cc1cc(OCC(=O)N2CCOCC2)cc2oc(=O)c3ccccc3c12,IC50,[7],> 79 µM (inactive)
Cc1ccc2nc(NC(=O)[C@H](C)N3C(=O)C4CC=CCC4C3=O)sc2c1 (some centres undefined),EC50,[2],0.556 µM (inconclusive)
same,EC50,[4],> 120 µM (not active)
COc1ccc(C(=O)[C@H]2[C@H]3C(=O)N(c4ccccc4)C(=O)[C@H]3C3C=CC=NN32)cc1 (some centres undefined),EC50,[2],> 120 µM (not active)
same,EC50,[4],> 120 µM (not active)
same,EC50,[3],> 120 µM (not active)
CCOc1ccc(-n2ccnc2SCC(=O)Nc2nnc(CC)s2)cc1,AC50,[1],20 µM (inconclusive)
Cc1cccc2c(=O)cc(C)n(CC(N)=O)c12,CC50,[8],24.6 µM (active)
Cc1cc(C)nc(SCc2cccc(C(=O)O)c2)n1,EC50,[2],17.5 µM (active)
same,EC50,[3],28.8 µM (active)
C(=C\c1nnc2c3ccccc3ncn12)/c1ccccc1,EC50,[4],7.36 µM (active)
CCCC(=O)NC(Nc1ccccc1F)C(Cl)(Cl)Cl (centres undefined),AC50,[1],22.4 µM (inconclusive)
same,AC50,[14],14.1 µM (inconclusive)
CCOC(=O)c1nn(-c2ccccc2)c2nc(Nc3ccccc3)cc(=O)n12,IC50,[9],5.99 µM (active)
Brc1ccc(CN2CCN(c3ccccc3)CC2)o1,AC50,[6],2.03 µM (active)
CN(C(=O)CSc1nc(O)c2c(n1)CCCC2)C1CCCCC1,IC50,[7],33.3 µM (inactive)
CCN(CC(=O)Nc1ccc(OC)cc1)C(=O)c1cc(-c2cccs2)nn1-c1ccccc1,IC50,[7],36.6 µM (inactive)
CCOc1ncccc1C(=O)OCC(=O)N1CCc2ccccc21,IC50,[9],13.9 µM (active)
COC(=O)COc1ccc2c(=O)c(-c3ccccc3OC)coc2c1,IC50,[9],5.9 µM (active)
FC(F)(F)c1cccc(-c2ccn3ncnc3n2)c1,CC50,[8],35.5 µM (active)
O=C(Nc1ccccc1)c1ccc(-c2ccc(Br)cc2)o1,CC50,[8],16.9 µM (active)
O=C(c1ccc(F)cc1)C1CCN(C(S)=Nc2ccccc2)CC1,AC50,[15],7.08 µM (inconclusive)
same,AC50,[13],14.1 µM (inconclusive)
same,AC50,[1],12.6 µM (inconclusive)
C[C@@H]1CCCC(CC(=O)O)(CC(=O)O)C1,AC50,[1],0.631 µM (inconclusive)
COc1cc(-c2cc3nc(NCCc4ccc(S(N)(=O)=O)cc4)ccn3n2)cc(OC)c1OC,IC50,[7],> 79 µM (inactive)
CC(=O)OCc1nc(O)c2c(C)c(C)sc2n1,IC50,[7],> 79 µM (inactive)
CN1CCN(/N=C/c2nc(-c3cccc([N+](=O)[O-])c3)n3ccccc23)CC1,EC50,[10],> 53 µM (inactive)
O=C(N/N=C/c1ccc(OC(=O)c2ccco2)cc1)c1ccccn1,IC50,[9],20.6 µM (active)
Cc1cc(/C=N/NC(=O)c2c(Br)cnn2C)c(C)n1-c1cccc(Br)c1,CC50,[8],41.5 µM (active)
C=CCOc1ccc(/C=N/NC(=O)c2cc3c(OC)cc(OC)cc3[nH]2)cc1,CC50,[8],27.4 µM (active)
Cc1ccc(/N=C2\C(Cl)=C(O)OC2OC(C)C)c(C)c1 (centres undefined),EC50,[2],> 120 µM (not active)
same,EC50,[4],24.8 µM (active)
same,EC50,[3],> 120 µM (not active)
O=c1[nH]nc(Cc2ccccc2)c2ccccc12,IC50,[7],> 79 µM (inactive)
N[C@@H](CCCP(=O)(O)O)C(=O)O,AC50,[1],31.6 µM (inconclusive)
